From patent publication US7138361B2, “Herbicidal heterocycles” (E. I. du Pont de Nemours and Company, priority 2000, dated 2006)

What was measured:
Assay type in all cases: in vivo
[1] = system: Surinam grass (Brachiaria decumbens); assay: Test B postemergence; conditions: 13 to 15 days
Excerpt: (§1) Seeds selected from barnyardgrass (Echinochloa crus-galli), Surinam grass (Brachiaria decumbens), cocklebur (Xanthium strumarium), corn (Zea mays), crabgrass (Digitaria sanguinalis), giant foxtail (Setaria faberii), lambsquarters (Chenopodium album), morning glory (Ipomoea hederacea), pigweed (Amaranthus retroflexus), rice (Oryza saliva) and velvetleaf (Abutilon theophrasti) were planted and treated preemergence with test chemicals formulated in a non-phytotoxic solvent mixture which included a surfactant.
(§2) At the same time, plants selected from these crop and weed species and also blackgrass (Alopecurus myosuroides), wheat (Triticum aestivum) and wild oat (Avena fatua) were treated with postemergence applications of test chemicals formulated in the same manner. Plants ranged in height from 2 to 18 cm (1- to 4-leaf stage) for postemergence treatments. Plant species in the flooded paddy test consisted of rice (Oryza saliva), smallflower flatsedge (Cyperus difformis), duck salad (Heteranthera limosa) and barnyardgrass (Echinochloa crus-galli) grown to the 2-leaf stage for testing. Treated plants and controls were maintained in a greenhouse for 13 to 15 days, after which time all species were compared to controls and visually evaluated. Plant response ratings, summarized in Table B, are based on a scale of 0 to 100 where 0 is no effect and 100 is complete control. A dash (-) response means no test result.

[2] = system: barnyardgrass (Echinochloa crus-galli); assay: Test B postemergence; conditions: 13 to 15 days
Excerpt: as §1, §2

[3] = system: blackgrass (Alopecurus myosuroides); assay: Test B postemergence; conditions: 13 to 15 days
Excerpt: as §1, §2

[4] = system: cocklebur (Xanthium strumarium); assay: Test B postemergence; conditions: 13 to 15 days
Excerpt: as §1, §2

corn (Zea mays) [5] = assay: Test B postemergence; conditions: 13 to 15 days
Excerpt: as §1, §2

[6] = system: crabgrass (Digitaria sanguinalis); assay: Test B postemergence; conditions: 13 to 15 days
Excerpt: as §1, §2

[7] = system: giant foxtail (Setaria faberii); assay: Test B postemergence; conditions: 13 to 15 days
Excerpt: as §1, §2

[8] = system: lambsquarters (Chenopodium album); assay: Test B postemergence; conditions: 13 to 15 days
Excerpt: as §1, §2

[9] = system: morning glory (Ipomoea hederacea); assay: Test B postemergence; conditions: 13 to 15 days
Excerpt: as §1, §2

[10] = system: pigweed (Amaranthus retroflexus); assay: Test B postemergence; conditions: 13 to 15 days
Excerpt: as §1, §2

[11] = system: velvetleaf (Abutilon theophrasti); assay: Test B postemergence; conditions: 13 to 15 days
Excerpt: as §1, §2

[12] = system: wheat (Triticum aestivum); assay: Test B postemergence; conditions: 13 to 15 days
Excerpt: as §1, §2

wild oat (Avena fatua) = assay: Test B postemergence; conditions: 13 to 15 days
Excerpt: as §1, §2

[13] = system: Surinam grass (Brachiaria decumbens); assay: Test B preemergence
In short: (§3)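 Greenhouse test: chemicals are formulated in a surfactant-containing non-phytotoxic solvent and applied either preemergence to planted seeds or postemergence to plants 2 to 18 cm tall. Response is rated visually versus controls after 13 to 15 days, 0 meaning no effect and 100 complete control.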

[14] = system: barnyardgrass (Echinochloa crus-galli); assay: Test B preemergence
In short: as §3

[15] = system: cocklebur (Xanthium strumarium); assay: Test B preemergence
In short: as §3

corn (Zea mays) [16] = assay: Test B preemergence
In short: as §3

[17] = system: crabgrass (Digitaria sanguinalis); assay: Test B preemergence
In short: as §3

[18] = system: giant foxtail (Setaria faberii); assay: Test B preemergence
In short: as §3

[19] = system: lambsquarters (Chenopodium album); assay: Test B preemergence
In short: as §3

[20] = system: morning glory (Ipomoea hederacea); assay: Test B preemergence
In short: as §3

[21] = system: pigweed (Amaranthus retroflexus); assay: Test B preemergence
In short: as §3

rice (Oryza saliva) [22] = assay: Test B preemergence
In short: as §3

[23] = system: velvetleaf (Abutilon theophrasti); assay: Test B preemergence
In short: as §3

[24] = system: barnyardgrass (Echinochloa crus-galli); assay: Test C flooded paddy test; conditions: for Barnyardgrass plant response rating: Flooded Paddy, scale 0 to 100, 0 no effect, 100 complete control; for Plant response rating, Barnyardgrass: flooded paddy test, scale 0 to 100 (0 no effect, 100 complete control)
In short: (§4)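 2-leaf-stage plants, flooded paddy; treated; greenhouse 12–14 days; compared with controls by eye; rated 0–100 (0 none, 100 complete control).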

[25] = system: duck salad (Heteranthera limosa); assay: Test C flooded paddy test; conditions: for Ducksalad plant response rating: Flooded Paddy, scale 0 to 100, 0 no effect, 100 complete control; for Plant response rating, Ducksalad: flooded paddy test, scale 0 to 100 (0 no effect, 100 complete control)
In short: as §4

rice (Oryza saliva) [26] = assay: Test C flooded paddy test; conditions: for Rice plant response rating: Flooded Paddy, scale 0 to 100, 0 no effect, 100 complete control; for Plant response rating, Rice: flooded paddy test, scale 0 to 100 (0 no effect, 100 complete control)
In short: as §4

[27] = system: smallflower flatsedge (Cyperus difformis); assay: Test C flooded paddy test; conditions: for Flatsedge plant response rating: Flooded Paddy, scale 0 to 100, 0 no effect, 100 complete control; for Plant response rating, Flatsedge: flooded paddy test, scale 0 to 100 (0 no effect, 100 complete control)
In short: as §4

[28] = Rate 125 g/ha, scale 0 (no effect) to 100 (complete control)
[29] = Rate 500 g/ha, scale 0 to 100, 0 is no effect, 100 is complete control
[30] = Preemergence, Rate 500 g/ha, scale 0 to 100, 0 no effect, 100 complete control
[31] = preemergence, Rate 125 g/ha, scale of 0 to 100 where 0 is no effect and 100 is complete control, 13 to 15 days

Cc1c(F)cc(N2CCC(n3ccc(C(C)(C)C)n3)C2=O)cc1Br (centres unmarked) [Compound 78]
30: Plant response rating, Crabgrass [17, 30]
80: Plant response rating, Pigweed [10, 29] | Plant response rating, Pigweed [21, 31]
10: Plant response rating, Lambsquarters [8, 29] | Plant response rating, Foxtail, Giant [18, 30]
60: Barnyardgrass plant response rating ([24]; Rate 500 g/ha)
100: Plant response rating, Lambsquarters [19, 30] | Plant response rating, Lambsquarters [19, 31] | Plant response rating, Pigweed [21, 30]
70: Plant response rating, Pigweed [10, 28]
20: Plant response rating, Cocklebur [4, 29]
0: Plant response rating, Surinam grass [1, 28] | Plant response rating, Surinam grass [1, 29] | Plant response rating, Barnyardgrass [2, 28] | Plant response rating, Barnyardgrass [2, 29] | Plant response rating, Blackgrass [3, 28] | Plant response rating, Blackgrass [3, 29] | Plant response rating, Cocklebur [4, 28] | Plant response rating, Corn (corn (Zea mays) [5]; [28]) | Plant response rating, Corn (corn (Zea mays) [5]; [29]) | Plant response rating, Crabgrass [6, 28] | Plant response rating, Crabgrass [6, 29] | Plant response rating, Foxtail, Giant [7, 28] | Plant response rating, Foxtail, Giant [7, 29] | Plant response rating, Lambsquarters [8, 28] | Plant response rating, Morningglory [9, 28] | Plant response rating, Morningglory [9, 29] | Plant response rating, Velvetleaf [11, 28] | Plant response rating, Velvetleaf [11, 29] | Plant response rating, Wheat [12, 28] | Plant response rating, Wheat [12, 29] | Plant response rating, Wild Oat (wild oat (Avena fatua); [28]) | Plant response rating, Wild Oat (wild oat (Avena fatua); [29]) | Plant response rating, Surinam grass [13, 30] | Plant response rating, Surinam grass [13, 31] | Plant response rating, Barnyardgrass [14, 31] | Plant response rating, Cocklebur [15, 30] | Plant response rating, Cocklebur [15, 31] | Plant response rating, Corn (corn (Zea mays) [16]; [30]) | Plant response rating, Corn (corn (Zea mays) [16]; [31]) | Plant response rating, Crabgrass [17, 31] | Plant response rating, Foxtail, Giant [18, 31] | Plant response rating, Morningglory [20, 30] | Plant response rating, Morningglory [20, 31] | Plant response rating, Rice (rice (Oryza saliva) [22]; [30]) | Plant response rating, Rice (rice (Oryza saliva) [22]; [31]) | Plant response rating, Velvetleaf [23, 30] | Plant response rating, Velvetleaf [23, 31] | Barnyardgrass plant response rating ([24]; Rate 250 g/ha) | Plant response rating, Barnyardgrass ([24]; Rate 62 g/ha) | Plant response rating, Barnyardgrass ([24]; Rate 125 g/ha) | Ducksalad plant response rating ([25]; Rate 250 g/ha) | Ducksalad plant response rating ([25]; Rate 500 g/ha) | Plant response rating, Ducksalad ([25]; Rate 62 g/ha) | Plant response rating, Ducksalad ([25]; Rate 125 g/ha) | Rice plant response rating (rice (Oryza saliva) [26]; Rate 250 g/ha) | Rice plant response rating (rice (Oryza saliva) [26]; Rate 500 g/ha) | Plant response rating, Rice (rice (Oryza saliva) [26]; Rate 62 g/ha) | Plant response rating, Rice (rice (Oryza saliva) [26]; Rate 125 g/ha) | Flatsedge plant response rating ([27]; Rate 250 g/ha) | Plant response rating, Flatsedge ([27]; Rate 62 g/ha) | Plant response rating, Flatsedge ([27]; Rate 125 g/ha)
90: Plant response rating, Barnyardgrass [14, 30] | Flatsedge plant response rating ([27]; Rate 500 g/ha)

Cc1ccc(N2CCC(n3ccc(C(C)(C)C)n3)C2=O)cc1OCCI (centres unmarked) [Compound 108]
20: Plant response rating, Surinam grass [1, 29] | Plant response rating, Cocklebur [4, 28] | Plant response rating, Foxtail, Giant [18, 30] | Plant response rating, Pigweed [21, 31] | Barnyardgrass plant response rating ([24]; Rate 500 g/ha)
100: Plant response rating, Lambsquarters [19, 30] | Plant response rating, Lambsquarters [19, 31]
90: Flatsedge plant response rating ([27]; Rate 500 g/ha)
30: Plant response rating, Surinam grass [13, 30] | Flatsedge plant response rating ([27]; Rate 250 g/ha)
40: Plant response rating, Cocklebur [4, 29] | Plant response rating, Pigweed [10, 29]
70: Plant response rating, Morningglory [9, 29]
0: Plant response rating, Surinam grass [1, 28] | Plant response rating, Barnyardgrass [2, 28] | Plant response rating, Barnyardgrass [2, 29] | Plant response rating, Blackgrass [3, 28] | Plant response rating, Blackgrass [3, 29] | Plant response rating, Corn (corn (Zea mays) [5]; [28]) | Plant response rating, Corn (corn (Zea mays) [5]; [29]) | Plant response rating, Crabgrass [6, 28] | Plant response rating, Crabgrass [6, 29] | Plant response rating, Foxtail, Giant [7, 28] | Plant response rating, Foxtail, Giant [7, 29] | Plant response rating, Wheat [12, 29] | Plant response rating, Wild Oat (wild oat (Avena fatua); [29]) | Plant response rating, Surinam grass [13, 31] | Plant response rating, Barnyardgrass [14, 30] | Plant response rating, Barnyardgrass [14, 31] | Plant response rating, Cocklebur [15, 30] | Plant response rating, Cocklebur [15, 31] | Plant response rating, Corn (corn (Zea mays) [16]; [30]) | Plant response rating, Corn (corn (Zea mays) [16]; [31]) | Plant response rating, Crabgrass [17, 30] | Plant response rating, Crabgrass [17, 31] | Plant response rating, Foxtail, Giant [18, 31] | Plant response rating, Morningglory [20, 30] | Plant response rating, Morningglory [20, 31] | Plant response rating, Rice (rice (Oryza saliva) [22]; [30]) | Plant response rating, Rice (rice (Oryza saliva) [22]; [31]) | Plant response rating, Velvetleaf [23, 30] | Plant response rating, Velvetleaf [23, 31] | Barnyardgrass plant response rating ([24]; Rate 250 g/ha) | Plant response rating, Barnyardgrass ([24]; Rate 62 g/ha) | Plant response rating, Barnyardgrass ([24]; Rate 125 g/ha) | Ducksalad plant response rating ([25]; Rate 250 g/ha) | Ducksalad plant response rating ([25]; Rate 500 g/ha) | Plant response rating, Ducksalad ([25]; Rate 62 g/ha) | Plant response rating, Ducksalad ([25]; Rate 125 g/ha) | Rice plant response rating (rice (Oryza saliva) [26]; Rate 250 g/ha) | Rice plant response rating (rice (Oryza saliva) [26]; Rate 500 g/ha) | Plant response rating, Rice (rice (Oryza saliva) [26]; Rate 62 g/ha) | Plant response rating, Rice (rice (Oryza saliva) [26]; Rate 125 g/ha) | Plant response rating, Flatsedge ([27]; Rate 62 g/ha) | Plant response rating, Flatsedge ([27]; Rate 125 g/ha)
80: Plant response rating, Lambsquarters [8, 29]
60: Plant response rating, Velvetleaf [11, 29] | Plant response rating, Pigweed [21, 30]
